The results in this text go back to publication PMC3195894 (FEBS letters, 2011).

One assay concerns the target recombinant human RSK2 (Homo sapiens, UniProt P51812). Nature of the assay: IMAP fluorescence polarization kinase inhibition assay, RSK2. The settings on record: read-out: IC50 RSK2; single assay; head-to-head testing, single batch of enzyme. The assay is classed as biochemical. (In general: Fluorescence polarisation rises when a labelled molecule tumbles more slowly, as on binding a larger partner.)

The target of a further assay is T1, recombinant human Chk1 (Homo sapiens, UniProt O14757).
T1 sequence (O14757 1-476): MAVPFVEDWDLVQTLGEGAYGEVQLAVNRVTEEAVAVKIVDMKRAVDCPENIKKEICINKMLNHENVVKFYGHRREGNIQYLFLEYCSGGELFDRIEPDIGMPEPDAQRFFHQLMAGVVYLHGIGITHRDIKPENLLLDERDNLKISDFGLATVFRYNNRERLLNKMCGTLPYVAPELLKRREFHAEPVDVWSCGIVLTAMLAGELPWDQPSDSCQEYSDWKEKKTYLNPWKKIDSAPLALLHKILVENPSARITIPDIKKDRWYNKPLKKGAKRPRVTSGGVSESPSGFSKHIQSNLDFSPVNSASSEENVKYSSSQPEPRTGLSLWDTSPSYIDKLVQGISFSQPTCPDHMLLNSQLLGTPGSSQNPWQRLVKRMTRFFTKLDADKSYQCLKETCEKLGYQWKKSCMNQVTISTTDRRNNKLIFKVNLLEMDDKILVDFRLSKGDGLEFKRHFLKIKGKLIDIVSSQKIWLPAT
Nature of the assay: IMAP fluorescence polarization kinase inhibition assay, Chk1. The assay is classed as biochemical. Particulars: read-out: IC50 Chk1; single assay; head-to-head testing, single batch of enzyme.

recombinant human RSK2, sequence (P51812 whole entry): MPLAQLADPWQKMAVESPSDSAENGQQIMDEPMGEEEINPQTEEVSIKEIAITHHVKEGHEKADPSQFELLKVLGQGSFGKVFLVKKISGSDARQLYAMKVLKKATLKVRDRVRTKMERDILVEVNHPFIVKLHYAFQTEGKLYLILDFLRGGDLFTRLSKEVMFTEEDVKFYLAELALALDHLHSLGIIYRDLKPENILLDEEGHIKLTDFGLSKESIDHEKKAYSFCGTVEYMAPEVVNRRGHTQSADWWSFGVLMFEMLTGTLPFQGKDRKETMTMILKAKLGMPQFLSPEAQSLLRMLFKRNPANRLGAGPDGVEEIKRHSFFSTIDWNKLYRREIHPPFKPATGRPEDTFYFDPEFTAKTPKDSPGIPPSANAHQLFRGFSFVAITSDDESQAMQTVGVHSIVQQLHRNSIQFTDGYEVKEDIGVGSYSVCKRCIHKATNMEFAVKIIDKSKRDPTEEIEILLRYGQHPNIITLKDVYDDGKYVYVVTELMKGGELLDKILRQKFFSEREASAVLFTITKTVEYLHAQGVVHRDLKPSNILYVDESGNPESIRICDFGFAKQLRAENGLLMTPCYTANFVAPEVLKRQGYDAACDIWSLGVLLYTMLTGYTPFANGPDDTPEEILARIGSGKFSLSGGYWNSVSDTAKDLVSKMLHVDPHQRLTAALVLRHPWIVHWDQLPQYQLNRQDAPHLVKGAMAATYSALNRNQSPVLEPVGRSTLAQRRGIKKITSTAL

With `CC(=NNC(=N)N)c1ccc(NC(=O)c2cc3cccc([N+](=O)[O-])c3[nH]2)cc1` [PV1019, 7-nitro-1H-indole-2-carboxylic acid {4-[1-(guanidinohydrazone)-ethyl]-phenyl}-amide], the values for the IC50 at recombinant human RSK2 and on recombinant human Chk1 were 39 µM and 8.1 µM, respectively.

The term IC50 denotes the concentration at which inhibition is half-maximal.
